Here are results for 14 molecules from US8030354B2, “Substituted biphenyl GPR40 modulators” (Amgen Inc., priority 2007, dated 2011).

Assay [1] deals with T1, GPR40 (Homo sapiens, UniProt O14842). Nature of the assay: Cell-based aequorin assay (CHO cells stably expressing GPR40 and aequorin). The conditions noted are these: activation of human GPR40, CHO cells, 0.01% HSA. On the set-up: expressed in transfected cells; host or cells: CHO cells stably transfected with GPR40 and aequorin. In a few lines: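 CHO cells stably co-expressing GPR40 and aequorin, loaded with coelenterazine (1 ug/mL, 2 h, room temperature) in H/HBSS with 20 mM Hepes and 0.01% fatty acid-free HSA. Serially diluted compounds added; luminescence recorded over 20 s. EC50 from dose-response of maximum relative light units.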

Assay [2] has as its target T1, GPR40. Put plainly: Inositol phosphate accumulation assay (A9_GPR40 cells). On the set-up: expressed in transfected cells; host or cells: CHO cells stably transfected with GPR40 and aequorin. Format: cell-based. The conditions noted are these: inositol phosphate assay, A9_GPR40 cells, 1 hour; read-out: IP3 EC50. The procedure, abridged:
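A9 cells stably expressing GPR40 were labelled 16 h with 1 μCi/mL ^3H-inositol in inositol-free DMEM with dialysed FBS. Compounds in HBSS/10 mM LiCl with HSA were applied for 1 h at 37° C, then quenched with 20 mM formic acid. Accumulated [^3H] inositol phosphates were counted by SPA.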

T1 sequence (O14842 whole entry): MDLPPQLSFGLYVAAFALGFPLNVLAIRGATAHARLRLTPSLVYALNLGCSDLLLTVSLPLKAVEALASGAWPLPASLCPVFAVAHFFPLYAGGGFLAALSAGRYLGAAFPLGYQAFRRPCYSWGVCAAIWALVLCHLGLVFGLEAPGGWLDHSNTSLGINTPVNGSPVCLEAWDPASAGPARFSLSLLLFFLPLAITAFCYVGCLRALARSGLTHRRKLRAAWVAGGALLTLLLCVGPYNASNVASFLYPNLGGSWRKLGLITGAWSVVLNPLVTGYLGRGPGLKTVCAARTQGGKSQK

Turning to `COc1ccc(F)c(-c2ccc(COc3cccc(C(C)CC(=O)O)c3)cc2C2=CCCC2)c1` (single isomer, unassigned) [Example 64.19, (3R)-3-(3-(((2-(1-Cyclopenten-1-yl)-2′-fluoro-5′-(methyloxy)-1,1′-biphenyl-4-yl)methyl)oxy)phenyl)butanoic acid or (3S)-3-(3-(((2-(1-cyclopenten-1-yl)-2′-fluoro-5′-(methyloxy)-1,1′-biphenyl-4-yl)methyl)oxy)phenyl)butanoic acid], the EC50 in assay [1] and in assay [2] was 100 to 1000 nM in each case.

On to `COc1cccc(-c2ccc(COc3cccc(C(C)CC(=O)O)c3)cc2C2=CCCC2(C)C)c1` (single isomer, unassigned) [Example 64.20, (3R)-3-(3-(((2-(5,5-Dimethyl-1-cyclopenten-1-yl)-3′-(methyloxy)-1,1′-biphenyl-4-yl)methyl)oxy)phenyl)butanoic acid or (3S)-3-(3-(((2-(5,5-dimethyl-1-cyclopenten-1-yl)-3′-(methyloxy)-1,1′-biphenyl-4-yl)methyl)oxy)phenyl)butanoic acid], for which the EC50 is 100 to 1000 nM in assay [1] and 10 to 100 nM in assay [2].

With `COc1ccc(F)c(-c2ccc(COc3cccc(C(C)CC(=O)O)c3)cc2C2=CCCCC2)c1` (single isomer, unassigned) [Example 64.21, (3R)-3-(3-(((2-(1-Cyclohexen-1-yl)-2′-fluoro-5′-(methyloxy)-1,1′-biphenyl-4-yl)methyl)oxy)phenyl)butanoic acid or (3S)-3-(3-(((2-(1-cyclohexen-1-yl)-2′-fluoro-5′-(methyloxy)-1,1′-biphenyl-4-yl)methyl)oxy)phenyl)butanoic acid], the values for the EC50 in assay [1] and in assay [2] were 100 to 1000 nM and 10 to 100 nM, respectively.

As to `COc1ccc(F)c(-c2ccc(COc3cccc(C(C)CC(=O)O)c3)cc2C2CCCC2(C)C)c1` (single isomer, unassigned) [Example 64.22, (3R)-3-(3-(((2-(2,2-Dimethylcyclopentyl)-2′-fluoro-5′-(methyloxy)-1,1′-biphenyl-4-yl)methyl)oxy)phenyl)butanoic acid or (3S)-3-(3-(((2-(2,2-dimethylcyclopentyl)-2′-fluoro-5′-(methyloxy)-1,1′-biphenyl-4-yl)methyl)oxy)phenyl)butanoic acid], the results for the EC50 in assay [1] and in assay [2] were 100 to 1000 nM and 10 to 100 nM, respectively.

For the molecule `CCC(CC(=O)O)c1cccc(OCc2ccc(-c3cc(OC)ccc3F)c(C3=CCCC3(C)C)c2)c1` (single isomer, unassigned) [Example 65.1, (3R)-3-(3-(((2-(5,5-Dimethyl-1-cyclopenten-1-yl)-2′-fluoro-5′-(methyloxy)-1,1′-biphenyl-4-yl)methyl)oxy)phenyl)pentanoic acid or (3S)-3-(3-(((2-(5,5-dimethyl-1-cyclopenten-1-yl)-2′-fluoro-5′-(methyloxy)-1,1′-biphenyl-4-yl)methyl)oxy)phenyl)pentanoic acid], the figures for the EC50 in assay [1] and in assay [2] were 100 to 1000 nM and 10 to 100 nM, respectively.

Consider `COc1ccc(F)c(-c2ccc(COc3cccc(C(CC(=O)O)C4CC4)c3)cc2C2CCCCCC2)c1` (single isomer, unassigned) [Example 66.2, (3S)-3-(3-(((2-Cycloheptyl-2′-fluoro-5′-(methyloxy)-1,1′-biphenyl-4-yl)methyl)oxy)phenyl)-3-cyclopropylpropanoic acid or (3R)-3-(3-(((2-cycloheptyl-2′-fluoro-5′-(methyloxy)-1,1′-biphenyl-4-yl)methyl)oxy)phenyl)-3-cyclopropylpropanoic acid], for which the values for the EC50 in assay [1] and in assay [2] were 100 to 1000 nM and 10 to 100 nM, respectively.

On to `COc1cccc(-c2ccc(COc3cccc(C(CC(=O)O)C4CC4)c3)cc2C2=CCCC2(C)C)c1` (single isomer, unassigned) [Example 66.3, (3S)-3-Cyclopropyl-3-(3-(((2-(5,5-dimethyl-1-cyclopenten-1-yl)-3′-(methyloxy)-1,1′-biphenyl-4-yl)methyl)oxy)phenyl)propanoic acid or (3R)-3-cyclopropyl-3-(3-(((2-(5,5-dimethyl-1-cyclopenten-1-yl)-3′-(methyloxy)-1,1′-biphenyl-4-yl)methyl)oxy)phenyl)propanoic acid], for which, in assay [1], the “Aequorin EC50” value is on record as “+++/ ++++”. In assay [2], the EC50 is less than 10 nM.

For the molecule `COc1cccc(-c2ccc(COc3cccc(C(CC(=O)O)C4CC4)c3)cc2C2CCCCCC2)c1` (single isomer, unassigned) [Example 66.9, (3S)-3-(3-(((2-Cycloheptyl-3′-(methyloxy)-1,1′-biphenyl-4-yl)methyl)oxy)phenyl)-3-cyclopropylpropanoic acid or (3R)-3-(3-(((2-cycloheptyl-3′-(methyloxy)-1,1′-biphenyl-4-yl)methyl)oxy)phenyl)-3-cyclopropylpropanoic acid], the EC50 in assay [1] fell in the range of 100 to 1000 nM; in assay [2] it was 10 to 100 nM.

Regarding `COc1ccc(F)c(-c2ccc(COc3cccc(C(CC(=O)O)C4CC4)c3)cc2C2=CCCCC2(C)C)c1` (single isomer, unassigned) [Example 66.10, (3S)-3-Cyclopropyl-3-(3-(((2-(6,6-dimethyl-1-cyclohexen-1-yl)-2′-fluoro-5′-(methyloxy)-1,1′-biphenyl-4-yl)methyl)oxy)phenyl)propanoic acid or (3R)-3-cyclopropyl-3-(3-(((2-(6,6-dimethyl-1-cyclohexen-1-yl)-2′-fluoro-5′-(methyloxy)-1,1′-biphenyl-4-yl)methyl)oxy)phenyl)propanoic acid], the EC50 in assay [1] was 100 to 1000 nM; in assay [2], less than 10 nM.

Consider `CC1(C)CCC[C@@H]1c1cc(COc2cccc([C@@H](CC(=O)O)C3CC3)c2)ccc1-c1cccc(OC(F)F)c1` (single isomer, unassigned) [Example 66.11], for which the figures for the EC50 in assay [1] and in assay [2] were 100 to 1000 nM and 10 to 100 nM, respectively.

`COc1cc(-c2ccc(COc3cccc([C@@H](CC(=O)O)C4CC4)c3)cc2C2=CCCC2(C)C)c(F)cn1` (single isomer, unassigned) [Example 66.12, (3S)-3-(3-(3-(5,5-Dimethylcyclopent-1-enyl)-4-(5-fluoro-2-methoxypyridin-4-yl)benzyloxy)phenyl)-3-cyclopropylpropanoic acid or (3R)-3-(3-(3-(5,5-dimethylcyclopent-1-enyl)-4-(5-fluoro-2-methoxypyridin-4-yl)benzyloxy)phenyl)-3-cyclopropylpropanoic acid]: the EC50 was in the range of 100 to 1000 nM in assay [1] and 10 to 100 nM in assay [2].

Regarding `COc1ccc(F)c(-c2ccc(COc3cccc([C@@H](CC(=O)O)C4CC4)c3)cc2[C@@H](OC)C(C)(C)C)c1` (single isomer, unassigned) [Example 66.13], the 50% effective concentration (EC50) in assay [1] is 100 to 1000 nM; in assay [2] it was less than 10 nM.

For `COc1ccc(F)c(-c2ccc(COc3cccc(C(CC(=O)O)C4CC4)c3)cc2C(C)C(C)(C)C)c1` (single isomer, unassigned) [Example 66.19], the EC50 in assay [1] was 10 to 100 nM; in assay [2] it was less than 10 nM.

In the case of `COc1ccc(F)c(-c2ccc(COc3cccc([C@@H](CC(=O)O)C4CC4)c3)cc2CC(C)C)c1` (single isomer, unassigned) [Example 66.20, (3S)-3-Cyclopropyl-3-(3-(((2′-fluoro-5′-(methyloxy)-2-(2-methylpropyl)-1,1′-biphenyl-4-yl)methyl)oxy)phenyl)propanoic acid or (3R)-3-cyclopropyl-3-(3-(((2′-fluoro-5′-(methyloxy)-2-(2-methylpropyl)-1,1′-biphenyl-4-yl)methyl)oxy)phenyl)propanoic acid], the EC50 in assay [1] fell in the range of 100 to 1000 nM; in assay [2], 10 to 100 nM.

As a reminder, the EC50 is the concentration that produces a half-maximal response.
